Results taken from article PMC5218480 (PLoS ONE, 2017).

System: MV-4-11 cells
Assay: Gene expression microarray analysis (Affymetrix PrimeView) and GSEA
Type: cell-based, human
Set-up: RFU PODN (11730768_x_at) / Fold change /veh PODN (11730768_x_at) / RFU LINC00158 (11744669_a_at) / Fold change /veh LINC00158 (11744669_a_at) / RFU DUSP10 (11751237_a_at) / Fold change /veh DUSP10 (11751237_a_at) / RFU ID3 (11757404_x_at) / Fold change /veh ID3 (11757404_x_at) / RFU PLEKHG5 (11737974_s_at) / Fold change /veh PLEKHG5 (11737974_s_at) / RFU LRRC4B (11730491_at) / Fold change /veh LRRC4B (11730491_at) / RFU GIMAP4 (11747438_a_at) / Fold change /veh GIMAP4 (11747438_a_at) / RFU KRT8 (11758183_x_at) / Fold change /veh KRT8 (11758183_x_at) / RFU CNN1 (11734310_a_at) / Fold change /veh CNN1 (11734310_a_at) / RFU VPS37D (11726825_at) / Fold change /veh VPS37D (11726825_at) / RFU C10orf10 (11716522_x_at) / Fold change /veh C10orf10 (11716522_x_at) / RFU KIR2DL2 /// KIR2DL4 /// KIR2DL5A /// KIR2DL5B /// KIR2DS1 /// KIR2DS2 /// KIR2DS3 /// KIR2DS4 /// KIR3DL3 /// KIR3DL3 /// KIR3DS1 (11738374_at) / Fold change /veh KIR2DL2 /// KIR2DL4 /// KIR2DL5A /// KIR2DL5B /// KIR2DS1 /// KIR2DS2 /// KIR2DS3 /// KIR2DS4 /// KIR3DL3 /// KIR3DL3 /// KIR3DS1 (11738374_at) / RFU C1QL1 (11718748_at) / Fold change /veh C1QL1 (11718748_at) / RFU TMPRSS4 (11747572_a_at) / Fold change /veh TMPRSS4 (11747572_a_at) / RFU HAMP (11756126_x_at) / Fold change /veh HAMP (11756126_x_at) / RFU RNFT2 (11725882_a_at) / Fold change /veh RNFT2 (11725882_a_at) / RFU NR4A2 (11747474_a_at) / Fold change /veh NR4A2 (11747474_a_at) / RFU ABCC12 (11746883_a_at) / Fold change /veh ABCC12 (11746883_a_at) / RFU TMEM136 (11760407_x_at) / Fold change /veh TMEM136 (11760407_x_at) / RFU CLDN22 /// WWC2 (11732394_at) / Fold change /veh CLDN22 /// WWC2 (11732394_at) / RFU HLA-DPB1 (11760878_x_at) / Fold change /veh HLA-DPB1 (11760878_x_at) / RFU SPINT1 (11716480_a_at) / Fold change /veh SPINT1 (11716480_a_at) / RFU GAP43 (11754022_s_at) / Fold change /veh GAP43 (11754022_s_at) / RFU A4GNT (11735810_at) / Fold change /veh A4GNT (11735810_at) / RFU PRB3 (11715151_x_at) / Fold change /veh PRB3 (11715151_x_at) / RFU TUBB4B (11761932_at) / Fold change /veh TUBB4B (11761932_at) / RFU CAPN14 (11732068_a_at) / Fold change /veh CAPN14 (11732068_a_at) / RFU TMCC2 (11721928_a_at) / Fold change /veh TMCC2 (11721928_a_at) / RFU IRGQ (11745062_a_at) / Fold change /veh IRGQ (11745062_a_at) / RFU FAM174B (11720279_a_at) / Fold change /veh FAM174B (11720279_a_at) / RFU TMPRSS4 (11748680_a_at) / Fold change /veh TMPRSS4 (11748680_a_at) / RFU FAM212B (11763350_a_at) / Fold change /veh FAM212B (11763350_a_at) / RFU PLEKHG5 (11743358_a_at) / Fold change /veh PLEKHG5 (11743358_a_at) / RFU ZSCAN30 (11745921_a_at) / Fold change /veh ZSCAN30 (11745921_a_at) / RFU CMKLR1 (11741424_a_at) / Fold change /veh CMKLR1 (11741424_a_at) / RFU LOC101060620 /// MAPK8IP1 (11723275_at) / Fold change /veh LOC101060620 /// MAPK8IP1 (11723275_at) / RFU SPTSSB (11747773_x_at) / Fold change /veh SPTSSB (11747773_x_at) / RFU PRSS12 (11739890_at) / Fold change /veh PRSS12 (11739890_at) / RFU BIN1 (11741810_x_at) / Fold change /veh BIN1 (11741810_x_at) / RFU WNT11 (11732464_a_at) / Fold change /veh WNT11 (11732464_a_at) / RFU C10orf10 (11716521_a_at) / Fold change /veh C10orf10 (11716521_a_at) / RFU C5orf56 (11738089_at) / Fold change /veh C5orf56 (11738089_at) / RFU CYB561 (11721691_x_at) / Fold change /veh CYB561 (11721691_x_at) / RFU ANKRD19P (11752326_a_at) / Fold change /veh ANKRD19P (11752326_a_at) / RFU OR2T12 /// OR2T33 /// OR2T8 (11738714_s_at) / Fold change /veh OR2T12 /// OR2T33 /// OR2T8 (11738714_s_at) / RFU VCAN (11748164_a_at) / Fold change /veh VCAN (11748164_a_at) / RFU JSRP1 (11732532_at) / Fold change /veh JSRP1 (11732532_at) / RFU KRTAP10-11 (11738290_x_at) / Fold change /veh KRTAP10-11 (11738290_x_at) / RFU MYO3A (11730013_a_at) / Fold change /veh MYO3A (11730013_a_at) / RFU EBF3 (11725865_a_at) / Fold change /veh EBF3 (11725865_a_at) / RFU CAMK2N1 (11719241_x_at) / Fold change /veh CAMK2N1 (11719241_x_at) / RFU C5orf56 (11738088_a_at) / Fold change /veh C5orf56 (11738088_a_at) / RFU OLFML3 (11715873_a_at) / Fold change /veh OLFML3 (11715873_a_at) / RFU LOC100653217 /// NTM (11731650_a_at) / Fold change /veh LOC100653217 /// NTM (11731650_a_at) / RFU MAPK11 (11762145_a_at) / Fold change /veh MAPK11 (11762145_a_at) / RFU FIZ1 (11724087_x_at) / Fold change /veh FIZ1 (11724087_x_at) / RFU OASL (11726364_x_at) / Fold change /veh OASL (11726364_x_at) / RFU SOX15 (11748057_x_at) / Fold change /veh SOX15 (11748057_x_at) / RFU CD79A (11719716_a_at) / Fold change /veh CD79A (11719716_a_at) / RFU HIST1H1D (11736915_at) / Fold change /veh HIST1H1D (11736915_at) / RFU CASKIN2 (11723855_a_at) / Fold change /veh CASKIN2 (11723855_a_at) / RFU LOC730098 (11760151_x_at) / Fold change /veh LOC730098 (11760151_x_at) / RFU OR4N2 (11742367_at) / Fold change /veh OR4N2 (11742367_at) / RFU PRRT2 (11749266_a_at) / Fold change /veh PRRT2 (11749266_a_at) / RFU SNX32 (11753110_a_at) / Fold change /veh SNX32 (11753110_a_at) / RFU CDHR5 (11726645_a_at) / Fold change /veh CDHR5 (11726645_a_at) / RFU RCAN1 (11760418_a_at) / Fold change /veh RCAN1 (11760418_a_at) / RFU FAM167A (11723789_a_at) / Fold change /veh FAM167A (11723789_a_at) / RFU FAM26E (11764081_at) / Fold change /veh FAM26E (11764081_at) / RFU ISYNA1 (11749810_s_at) / Fold change /veh ISYNA1 (11749810_s_at) / RFU ACY1 (11761880_at) / Fold change /veh ACY1 (11761880_at) / RFU 11764098_at / Fold change /veh 11764098_at / RFU SAMD14 (11745864_x_at) / Fold change /veh SAMD14 (11745864_x_at) / RFU NPB (11741838_a_at) / Fold change /veh NPB (11741838_a_at) / RFU TMPRSS6 (11731388_a_at) / Fold change /veh TMPRSS6 (11731388_a_at) / RFU KRTAP10-2 (11738614_at) / Fold change /veh KRTAP10-2 (11738614_at) / RFU ARHGAP8 /// PRR5-ARHGAP8 (11727945_x_at) / Fold change /veh ARHGAP8 /// PRR5-ARHGAP8 (11727945_x_at) / RFU KRTAP5-7 /// NADSYN1 (11734609_at) / Fold change /veh KRTAP5-7 /// NADSYN1 (11734609_at) / RFU RASL12 (11751679_a_at) / Fold change /veh RASL12 (11751679_a_at) / RFU CDKN2B (11736163_a_at) / Fold change /veh CDKN2B (11736163_a_at) / RFU PRF1 (11729649_at) / Fold change /veh PRF1 (11729649_at) / RFU, ZNF638 /// ZNF638-IT1 / Fold change vs veh, ZNF638 /// ZNF638-IT1 / RFU, PANK3 / Fold change vs veh, PANK3 / RFU, SH3YL1 / Fold change vs veh, SH3YL1 / RFU, ZEB2 / Fold change vs veh, ZEB2 / RFU, NRIP1 / Fold change vs veh, NRIP1 / RFU, PTTG1IP / Fold change vs veh, PTTG1IP / RFU, CAPN2 / Fold change vs veh, CAPN2 / RFU, MED14 / Fold change vs veh, MED14 / RFU, SNORA58 / Fold change vs veh, SNORA58 / RFU, C1orf63 / Fold change vs veh, C1orf63 / RFU, LRRFIP1 / Fold change vs veh, LRRFIP1 / RFU, NDUFAF7 / Fold change vs veh, NDUFAF7 / RFU, SLC12A2 / Fold change vs veh, SLC12A2 / RFU, IBTK / Fold change vs veh, IBTK / RFU, ESF1 / Fold change vs veh, ESF1 / Fold change vs veh, TMEM50B / RFU, TAOK1 / Fold change vs veh, TAOK1 / RFU, ACBD3 / Fold change vs veh, ACBD3 / RFU, TMA16 / Fold change vs veh, TMA16 / RFU, RWDD3 / Fold change vs veh, RWDD3 / RFU, BCAT1 / Fold change vs veh, BCAT1 / RFU, EDEM3 / Fold change vs veh, EDEM3 / RFU, TMEM33 / Fold change vs veh, TMEM33 / RFU, WDR75 / Fold change vs veh, WDR75 / RFU, AHCTF1 / Fold change vs veh, AHCTF1 / RFU, TFRC / Fold change vs veh, TFRC / RFU, ZDHHC17 / Fold change vs veh, ZDHHC17 / RFU, NOM1 / Fold change vs veh, NOM1 / RFU, ARL8B / Fold change vs veh, ARL8B / RFU, ZBTB11 / Fold change vs veh, ZBTB11 / RFU, TAMM41 / Fold change vs veh, TAMM41 / RFU, KIAA1704 /// LOC100996395 / Fold change vs veh, KIAA1704 /// LOC100996395 / RFU, ING1 / Fold change vs veh, ING1 / RFU, TRMT61B / Fold change vs veh, TRMT61B / RFU, FUBP3 / Fold change vs veh, FUBP3 / RFU, TP53 / Fold change vs veh, TP53 / RFU, TNKS2 / Fold change vs veh, TNKS2 / RFU, ZFP14 / Fold change vs veh, ZFP14 / RFU, ACTR2 / Fold change vs veh, ACTR2 / RFU, PPP3R1 / Fold change vs veh, PPP3R1 / RFU, PIK3R1 / Fold change vs veh, PIK3R1 / RFU, HNRNPA1 / Fold change vs veh, HNRNPA1 / RFU, RNF170 / Fold change vs veh, RNF170 / RFU, ZNF28 / Fold change vs veh, ZNF28 / RFU, RNGTT / Fold change vs veh, RNGTT / RFU, OGT / Fold change vs veh, OGT / RFU, BRD1 / Fold change vs veh, BRD1 / RFU, MARS / Fold change vs veh, MARS / RFU, ZNF655 / Fold change vs veh, ZNF655 / RFU, FAHD1 / Fold change vs veh, FAHD1 / RFU, BDP1 / Fold change vs veh, BDP1 / RFU, LRRCC1 / Fold change vs veh, LRRCC1 / RFU, ARID1A / Fold change vs veh, ARID1A / RFU, ZNF146 / Fold change vs veh, ZNF146 / RFU, ZNF330 / Fold change vs veh, ZNF330 / RFU, GPN3 / Fold change vs veh, GPN3 / RFU, C9orf123 / Fold change vs veh, C9orf123 / RFU, N4BP2L2 / Fold change vs veh, N4BP2L2 / RFU, ARFIP1 / Fold change vs veh, ARFIP1 / RFU, FAM179B / Fold change vs veh, FAM179B / RFU, BCL10 / Fold change vs veh, BCL10 / RFU, UHRF1BP1L / Fold change vs veh, UHRF1BP1L / RFU, BET1 / Fold change vs veh, BET1 / RFU, CNOT2 / Fold change vs veh, CNOT2 / RFU, ZNF268 / Fold change vs veh, ZNF268 / Fold change vs veh, ZNF507 / RFU, DGCR2 / Fold change vs veh, DGCR2 / RFU, WDSUB1 / Fold change vs veh, WDSUB1 / Fold change vs veh, HSP90B1 /// MIR3652 / RFU, ADSS / Fold change vs veh, ADSS / RFU, GK / Fold change vs veh, GK / RFU, ZNF148 / Fold change vs veh, ZNF148 / RFU, TAF9 / Fold change vs veh, TAF9 / RFU, SLC1A5 / Fold change vs veh, SLC1A5 / RFU, SLMO2 / Fold change vs veh, SLMO2 / RFU, ABCC4 / Fold change vs veh, ABCC4 / RFU, LOC101060439 /// RAP1B / Fold change vs veh, LOC101060439 /// RAP1B / RFU, RFX7 / Fold change vs veh, RFX7 / RFU, GTPBP10 / Fold change vs veh, GTPBP10 / RFU, CNEP1R1 / Fold change vs veh, CNEP1R1 / RFU, BIVM-ERCC5 /// ERCC5 / Fold change vs veh, BIVM-ERCC5 /// ERCC5 / RFU, ILF3 / Fold change vs veh, ILF3 / RFU 11762660_at / Fold change /veh 11762660_at / RFU VCAN (11757783_s_at) / Fold change /veh VCAN (11757783_s_at) / RFU DDX43 (11728927_at) / Fold change /veh DDX43 (11728927_at) / RFU KRT8 (11758188_x_at) / Fold change /veh KRT8 (11758188_x_at) / RFU NKD1 (11759106_at) / Fold change /veh NKD1 (11759106_at) / RFU SRD5A1 (11742802_a_at) / Fold change /veh SRD5A1 (11742802_a_at) / RFU TPSAB1 /// TPSB2 (11721975_s_at) / Fold change /veh TPSAB1 /// TPSB2 (11721975_s_at) / RFU GSTM3 (11746129_a_at) / Fold change /veh GSTM3 (11746129_a_at) / RFU IL23R (11737362_x_at) / Fold change /veh IL23R (11737362_x_at) / RFU TMEM51 (11727254_a_at) / Fold change /veh TMEM51 (11727254_a_at) / RFU PIWIL2 (11732686_x_at) / Fold change /veh PIWIL2 (11732686_x_at) / RFU ORM1 (11744905_x_at) / Fold change /veh ORM1 (11744905_x_at) / RFU CCDC152 (11743942_at) / Fold change /veh CCDC152 (11743942_at) / RFU ECM1 (11717891_a_at) / Fold change /veh ECM1 (11717891_a_at) / RFU IL23R (11748794_a_at) / Fold change /veh IL23R (11748794_a_at) / RFU TNFAIP8L3 (11732012_x_at) / Fold change /veh TNFAIP8L3 (11732012_x_at) / RFU MBOAT4 (11741988_at) / Fold change /veh MBOAT4 (11741988_at) / RFU 11764193_at / Fold change /veh 11764193_at / RFU TMEM53 (11763286_at) / Fold change /veh TMEM53 (11763286_at) / RFU MAGEB2 (11727129_at) / Fold change /veh MAGEB2 (11727129_at) / RFU TMEM200A (11744735_a_at) / Fold change /veh TMEM200A (11744735_a_at) / RFU CCDC152 (11751479_a_at) / Fold change /veh CCDC152 (11751479_a_at) / RFU FAM211A (11726209_a_at) / Fold change /veh FAM211A (11726209_a_at) / RFU RGS16 (11746705_a_at) / Fold change /veh RGS16 (11746705_a_at) / RFU VCAN (11755009_s_at) / Fold change /veh VCAN (11755009_s_at) / RFU RHOB (11743442_s_at) / Fold change /veh RHOB (11743442_s_at) / RFU RGS16 (11720943_a_at) / Fold change /veh RGS16 (11720943_a_at) / RFU RGS16 (11720944_at) / Fold change /veh RGS16 (11720944_at) / RFU, VPS4B / Fold change vs veh, VPS4B / RFU, CREB1 / Fold change vs veh, CREB1 / RFU, DNAJC13 / Fold change vs veh, DNAJC13 / RFU, GNAQ / Fold change vs veh, GNAQ / RFU, CDK5R1 / Fold change vs veh, CDK5R1 / RFU, ZRANB3 / Fold change vs veh, ZRANB3 / RFU, CUL4A / Fold change vs veh, CUL4A / RFU, CCNY / Fold change vs veh, CCNY / RFU, UFL1 / Fold change vs veh, UFL1 / RFU, COG3 / Fold change vs veh, COG3 / RFU, DIAPH2 / Fold change vs veh, DIAPH2 / RFU, SKA2 / Fold change vs veh, SKA2 / RFU, AFF3 / Fold change vs veh, AFF3 / RFU, LMF1 / Fold change vs veh, LMF1 / RFU, IPO11 / Fold change vs veh, IPO11 / RFU, DFFB / Fold change vs veh, DFFB / RFU, FOXP1 / Fold change vs veh, FOXP1 / RFU, CARD8 / Fold change vs veh, CARD8 / RFU, STRN3 / Fold change vs veh, STRN3 / RFU, ADK / Fold change vs veh, ADK / RFU, RASSF2 / Fold change vs veh, RASSF2 / RFU, WIPF1 / Fold change vs veh, WIPF1 / RFU, LARP1B / Fold change vs veh, LARP1B / RFU, RASA1 / Fold change vs veh, RASA1 / RFU, RB1 / Fold change vs veh, RB1 / RFU, PPFIA1 / Fold change vs veh, PPFIA1 / RFU, MAT2A / Fold change vs veh, MAT2A / RFU, CCT5 / Fold change vs veh, CCT5 / RFU, WDR92 / Fold change vs veh, WDR92 / RFU, CUX1 / Fold change vs veh, CUX1 / RFU, TTC7A / Fold change vs veh, TTC7A / RFU, TMEM135 / Fold change vs veh, TMEM135 / RFU, DEPTOR / Fold change vs veh, DEPTOR / RFU, CPM / Fold change vs veh, CPM / RFU, DNAJB6 / Fold change vs veh, DNAJB6 / RFU, CACNA2D3 / Fold change vs veh, CACNA2D3 / RFU, DTX4 / Fold change vs veh, DTX4 / RFU, TFCP2 / Fold change vs veh, TFCP2 / RFU, GMCL1 /// GMCL1P1 / Fold change vs veh, GMCL1 /// GMCL1P1 / RFU, AEBP2 / Fold change vs veh, AEBP2 / RFU, SNHG1 /// SNORD22 /// SNORD25 /// SNORD26 /// SNORD27 /// SNORD28 /// SNORD29 /// SNORD31 / Fold change vs veh, SNHG1 /// SNORD22 /// SNORD25 /// SNORD26 /// SNORD27 /// SNORD28 /// SNORD29 /// SNORD31 / Fold change (Aza/veh), C12orf56 (ProbeSet 11735607_a_at) / Fold change (ACY-1035/veh), C12orf56 (ProbeSet 11735607_a_at) / Fold change (Aza/veh), FGFR1OP (ProbeSet 11751329_s_at) / Fold change (ACY-1035/veh), FGFR1OP (ProbeSet 11751329_s_at) / Fold change (Aza/veh), VPS36 (ProbeSet 11739960_a_at) / Fold change (ACY-1035/veh), VPS36 (ProbeSet 11739960_a_at) / RFU SYPL1 (11715823_x_at) / Fold change /veh SYPL1 (11715823_x_at) / RFU IGFBP7 (11715501_s_at) / Fold change /veh IGFBP7 (11715501_s_at) / RFU REEP3 (11722064_at) / Fold change /veh REEP3 (11722064_at) / RFU IGLL1 (11728026_x_at) / Fold change /veh IGLL1 (11728026_x_at): dose or concentration left out as unconfirmed
Settings: ProbeSet 11739696_s_at; LIST D

Compound: Nc1ccc(-c2cccs2)cc1NC(=O)c1ccc2c(c1)cc(C1CC1)n2CCN1CCOCC1 [ACY-1035]
- Fold change vs veh, AFF3: 1.00
